Results as given in patent US6936600B2, “Sorbitol dehrydrogenase inhibitors” (Pfizer Inc, priority 1999, dated 2005).

SMILES	melting point
C[C@@H]1CN(C(=O)/C=C/c2cc3ccccc3o2)C[C@H](C)N1c1ccnc([C@@H](C)O)n1 [Example 130, (E)-3-Benzofuran-2-yl-1-{4-[2-(1R-hydroxy-ethyl)-pyrimidin-4-yl]-2R,6S-dimethyl-piperazin-1-yl}-propenone]	80 to 82 °C
C[C@@H](O)c1nccc(N2CCC(=C(c3ccccc3)c3ccccc3)CC2)n1 [Example 180]	108 to 109 °C
C[C@@H](O)c1nccc(N2C[C@@H]3C[C@H]2CN3S(=O)(=O)c2ccc(Cl)cc2)n1 [Example 115]	83 to 88 °C
C[C@@H](O)c1nccc(N2CCc3c(c(=O)n(-c4cnc5ccccc5n4)n3C)C2)n1 [Example 75, (R)-5-[2-(1-Hydroxy-ethyl)-pyrimidin-4-yl]-1-methyl-2-quinoxalin-2-yl-1,2,4,5,6,7-hexahydro-pyrazolo[4,3-c]pyridin-3-one]	217 to 219 °C (dec.)
C[C@@H](O)c1nccc(N2CCC(=Cc3cccc(Cl)c3)CC2)n1 [Example 176, (R)-1-{4-[4-(3-Chlorobenzylidene)-piperidin-1-yl]-pyrimidin-2-yl}-ethanol]	45 to 55 °C
Cc1cc(C)nc(N2C[C@@H](C)N(c3ccnc([C@@H](C)O)n3)[C@@H](C)C2)n1 [Example 27, 1R-{4-[4-(4,6-Dimethyl-pyrimidin-2-yl)-2R,6S-dimethyl-piperazin-1-yl]-pyrimidin-2-yl}-ethanol]	150.5 to 152 °C
C[C@@H](O)c1nccc(N2CCN(S(=O)(=O)/C=C/c3ccccc3)CC2)n1 [Example 111, (E)-1-R{4-[4-(2-phenyl-ethenesulfonyl)-piperazin-1-yl]-pyrimidin-2-yl}-ethanol]	68 to 70 °C
C[C@@H](O)c1nccc(N2CCc3nc(N)ncc3C2)n1 [Example 256]	208 to 210 °C
O=S(=O)(N1CCCC1)N1CCN(c2ccnc(CO)n2)CC1 [Example 121, {4-[4-(Pyrrolidine-1-sulfonyl)-piperazin-1-yl]-pyrimidin-2-yl}-methanol]	128 to 131 °C
C[C@@H](O)c1nccc(N2CCn3c(nnc3-c3ccc(-c4ccccc4)cc3)C2)n1 [Example 263]	123 to 125 °C
O=S(=O)(N1CCCCC1)N1CCN(c2ccnc(CO)n2)CC1 [Example 123]	141 to 142 °C
Cc1nc2c(c(Oc3ccccc3)n1)CCN(c1ccnc([C@@H](C)O)n1)C2 [Example 97]	156 to 158 °C
C[C@@H](O)c1nccc(N2CCn3c(nnc3-c3ccc4nccnc4c3)C2)n1 [Example 261]	212 to 215 °C
COc1nc(OC)nc(N2[C@H](C)CN(c3ccnc([C@@H](C)O)n3)C[C@@H]2C)n1 [Example 214, 1R-{4-[4-(4,6-Dimethoxy-[1,3,5]triazin-2-yl)-3R,5S-dimethyl-piperazin-1-yl]-pyrimidin-2-yl}-ethanol]	187 to 188 °C
CC(=O)c1nccc(N2C[C@@H](C)N(c3ccnc(C(C)=O)n3)[C@@H](C)C2)n1 [Example 63, 1-{4-[4-(2-Acetyl-pyrimidin-4-yl)-2R*,6S*-dimethyl-piperazin-1-yl]-pyrimidin-2-yl}-ethanone]	> 235 °C (dec.)
C[C@@H](OC(=O)Cc1nn(Cc2nc3cc(C(F)(F)F)ccc3s2)c(=O)c2ccccc12)c1nccc(N2CCN(c3cnc4ccccc4n3)CC2)n1 [Example 277, (E)-[4-Oxo-3-(5-trifluoromethyl-benzothiazol-2-ylmethyl)-3,4-dihydro-phthalazin-1-yl]-acetic acid 1R-[4-(4-quinoxalin-2-yl-piperazin-1-yl)-pyrimidin-2-yl]-ethyl ester]	108 to 112 °C
C[C@@H](O)c1nccc(N2CCc3c(nc(N)nc3-c3ccccc3)C2)n1 [Example 90]	225 to 228 °C (dec.)
C[C@@H](O)c1nccc(N2CCc3ccc(S(=O)(=O)N(C)C)cc3C2)n1 [Example 247, (R)-2-[2-(1-Hydroxy-ethyl)-pyrimidin-4-yl]-1,2,3,4-tetrahydro-isoquinoline-7-sulfonic acid dimethylamide]	120.5 to 122 °C
C[C@@H]1CN(c2ncnc(-c3ccccc3)n2)C[C@H](C)N1c1ccnc([C@@H](C)O)n1 [Example 215]	133 to 134 °C
C[C@@H](O)c1nccc(N2CCc3cc(-c4ccsc4)ccc3C2)n1 (stereo in doubt) [Example 248, 1-[4-(6-Thiophen-3-yl-3,4-dihydro-1H-isoquinolin-2-yl)-pyrimidin-2-yl]-ethanol]	125.5 to 127.5 °C
C[C@@H](O)c1nccc(N2CCc3c(nc(-c4ccccc4)nc3-c3ccccc3)C2)n1 [Example 91]	73 to 75 °C

Other lines, results leading:

melting point	SMILES
181 to 182 °C	C[C@@H]1CN(c2ccnc([C@@H](C)O)n2)C[C@H](C)N1c1ccnc(N2CCN(C)CC2)n1 [Example 208, 1R-(4-{3R,5S-Dimethyl-4-[2-(4-methyl-piperazin-1-yl)-pyrimidin-4-yl]-piperazin-1-yl}-pyrimidin-2-yl)-ethanol]
155 to 157 °C	C[C@@H]1CN(c2ccnc([C@@H](C)O)n2)CCN1c1ccnc([C@@H](C)O)n1 [Example 39, 1R-(4-{4-[2-(1R-Hydroxy-ethyl)-pyrimidin-4-yl]-2R-methyl-piperazin-1-yl}-pyrimidin-2-yl)-ethanol]
123 to 127 °C	CC(=O)c1nccc(N2[C@H](C)CN(c3ccnc([C@@H](C)O)n3)C[C@@H]2C)n1 [Example 45, 1-(4-{4-[2-(1R-Hydroxy-ethyl)-pyrimidin-4-yl]-2R,6S-dimethyl-piperazin-1-yl}-pyrimidin-2-yl)-ethanone]
61 to 70 °C	C[C@@H]1CN(c2ccnc(-c3cccnc3)n2)C[C@H](C)N1c1ccnc([C@@H](C)O)n1 [Example 201, 1R-{4-[2R,6S-Dimethyl-4-(2-pyridin-3-yl-pyrimidin-4-yl)-piperazin-1-yl]-pyrimidin-2-yl}-ethanol]
141.5 to 142.5 °C	Cc1cc(C)nc(N2[C@H](C)CN(c3ccnc([C@@H](C)O)n3)C[C@@H]2C)n1 [Example 66, 1R-{4-[4-(4,6-Dimethyl-pyrimidin-2-yl)-3R,5S-dimethyl-piperazin-1-yl]-pyrimidin-2-yl}-ethanol]
142 to 143 °C	C[C@@H]1CN(c2ccnc([C@@H](C)O)n2)C[C@H](C)N1C(=O)c1cc2cnccc2o1 [Example 132, Furo[3,2-c]pyridin-2-yl-{4-[2-(1R-hydroxy-ethyl)-pyrimidin-4-yl]-2R,6S-dimethyl-piperazin-1-yl}-methanone]
158 to 160 °C	C[C@@H](O)c1nccc(N2CCN(c3ccnc([C@@H](C)O)n3)[C@@H](C)C2)n1 [Example 38, 1R-(4-{4-[2-(1R-Hydroxy-ethyl)-pyrimidin-4-yl]-2S-methyl-piperazin-1-yl}-pyrimidin-2-yl)-ethanol]
60 to 70 °C	C[C@@H]1CN(c2ccnc([C@@H](C)O)n2)C[C@H](C)N1C(=O)CSc1ncccn1 [Example 160, 1-{4-[2-(1R-Hydroxy-ethyl)-pyrimidin-4-yl]-2R,6S-dimethyl-piperazin-1-yl}-2-(pyrimidin-2-ylsulfanyl)-ethanone]
68 to 70 °C	C[C@@H](O)c1nccc(N2CCN(Cc3ccccn3)CC2)n1 [Example 182, (R)-1-[4-(4-Pyridin-2-ylmethyl-piperazin-1-yl)-pyrimidin-2-yl]-ethanol]
79 to 82 °C	C[C@@H](O)c1nccc(N2CCc3ncncc3C2)n1 [Example 253]
